Laboratory results as given in US20180008587A1, “THIOHYDANTOIN ANDROGEN RECEPTOR ANTAGONISTS FOR THE TREATMENT OF CANCER” (Jaressen Pharmaceutica NV, priority 2016, published 2018).
Changes are numbered by the printed parent chain. pEC50: −log10 of the molar value. Read-outs that look alike come from different tables or passages of the source.

How the values were obtained:
Format in all cases: cell-based
[1] = molecular target: T1, F876L mutant Androgen Receptor (AR-F876L) (Homo sapiens, UniProt P10275, F877L); assay: LNCaP-AR-F876L ANT reporter assay (ARE firefly luciferase, antagonist mode); settings: for Emax: read-out: LNCaP-AR-F876L ANT MAX % Inh; for IC50: read-out: LNCaP-AR-F876L ANT pIC50 (converted)
T1 construct: expressed in transfected cells; host or cells: LNCaP (LNCaP F876L)
T1 sequence (P10275 1-920 F877L): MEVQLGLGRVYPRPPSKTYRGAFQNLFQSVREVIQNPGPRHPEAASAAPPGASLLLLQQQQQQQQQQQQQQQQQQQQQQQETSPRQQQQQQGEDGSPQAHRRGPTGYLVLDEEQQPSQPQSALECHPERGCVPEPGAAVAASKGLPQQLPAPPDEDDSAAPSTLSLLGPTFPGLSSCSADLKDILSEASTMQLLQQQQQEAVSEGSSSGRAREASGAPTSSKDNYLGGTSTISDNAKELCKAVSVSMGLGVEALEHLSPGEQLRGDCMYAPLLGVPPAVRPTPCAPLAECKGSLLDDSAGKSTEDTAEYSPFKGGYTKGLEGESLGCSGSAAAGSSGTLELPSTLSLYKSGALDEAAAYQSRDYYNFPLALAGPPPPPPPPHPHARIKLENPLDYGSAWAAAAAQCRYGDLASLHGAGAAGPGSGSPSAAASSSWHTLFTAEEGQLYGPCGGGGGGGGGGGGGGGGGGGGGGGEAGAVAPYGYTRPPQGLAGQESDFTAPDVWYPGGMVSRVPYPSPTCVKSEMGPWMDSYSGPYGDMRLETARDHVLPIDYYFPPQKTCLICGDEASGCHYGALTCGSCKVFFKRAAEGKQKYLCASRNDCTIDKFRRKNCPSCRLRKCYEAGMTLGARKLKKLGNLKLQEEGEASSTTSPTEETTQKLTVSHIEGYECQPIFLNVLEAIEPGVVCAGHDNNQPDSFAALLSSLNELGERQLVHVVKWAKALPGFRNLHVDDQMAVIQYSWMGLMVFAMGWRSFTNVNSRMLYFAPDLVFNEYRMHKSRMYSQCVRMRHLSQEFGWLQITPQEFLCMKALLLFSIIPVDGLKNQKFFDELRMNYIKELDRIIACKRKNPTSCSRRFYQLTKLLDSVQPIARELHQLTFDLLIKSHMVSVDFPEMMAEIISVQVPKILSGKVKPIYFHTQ
In short: (§1)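 Cells: stable LNCaP pools, AR-wt or AR-F876L, in charcoal-stripped serum. Agonist challenge for antagonist mode was 400 pM (WT) and 600 pM (F876L). Luminescence was measured after 20-24 h incubation.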

[2] = molecular target: T1, F876L mutant Androgen Receptor (AR-F876L); assay: LNCaP-AR-F876L AG reporter assay (ARE firefly luciferase, agonist mode); settings: for EC50: agonist mode, −Log10(EC50 [Molar]), read-out: LNCaP-AR-F876L AG pEC50 (converted); for Emax: read-out: LNCaP-AR-F876L AG MAX % Stim
In short: as §1

[3] = molecular target: T2, wild-type Androgen Receptor (AR-wt) (Homo sapiens, UniProt P10275); assay: LNCaP-AR-wt AG reporter assay (ARE firefly luciferase, agonist mode); settings: for EC50: agonist mode, −Log10(EC50 [Molar]), read-out: LNCaP-AR-wt AG pEC50 (converted); for Emax: read-out: LNCaP-AR-wt AG MAX % Stim
T2 construct: expressed in transfected cells; host or cells: LNCaP (LNCaP AR (cs))
T2 sequence (P10275 1-920): T1 sequence (P10275 1-920 F877L) with L877F
In short: as §1

[4] = molecular target: T2, wild-type Androgen Receptor (AR-wt); assay: LNCaP-AR-wt ANT reporter assay (ARE firefly luciferase, antagonist mode); settings: for IC50: antagonist mode, 400 pM R-1881 challenge, −Log10(IC50 [Molar]), read-out: LNCaP-AR-wt ANT pIC50 (converted); for Emax: read-out: LNCaP-AR-wt ANT MAX % Inh
In short: as §1

[5] = maximum % inhibition of R1881 control response over tested concentration range
[6] = maximum % stimulation (agonist response) over tested concentration range

Compound	Emax [1, 5]	IC50 [1]	EC50 [2]	Emax [2, 6]	EC50 [3]	Emax [3, 6]	IC50 [4]	Emax [4, 5]	Emax [1]	pEC50 [2]	Emax [2]	pEC50 [3]	Emax [3]	Emax [4]
Cc1cc(N2C(=O)C3(CCC3)N(c3ccc(-c4ccco4)cc3)C2=S)cnc1C#N [Cpd 86, 5-[8-[4-(2-furyl)phenyl]-5-oxo-7-thioxo-6,8-diazaspiro[3.4]octan-6-yl]-3-methyl-pyridine-2-carbonitrile]	93.3%	209 nM	> 15100 nM	1.3%	> 15100 nM	0.6%	257 nM	91.7%	–	–	–	–	–	–
N#Cc1ncc(N2C(=O)C3(CCC3)N(c3ccc4ccncc4c3)C2=S)cc1C(F)(F)F [Cpd 7, 5-[8-(7-isoquinolyl)-5-oxo-7-thioxo-6,8-diazaspiro[3.4]octan-6-yl]-3-(trifluoromethyl)pyridine-2-carbonitrile]	–	234 nM	–	–	–	–	417 nM	–	100%	< 4.82	0%	< 4.82	-0.2%	101%
CN1CCC(Oc2ccc(N3C(=S)N(c4cnc(C#N)c(C(F)(F)F)c4)C(=O)C3(C)C)cc2)CC1 [Cpd 19, 5-[4,4-dimethyl-3-[4-[(1-methyl-4-piperidyl)oxy]phenyl]-5-oxo-2-thioxo-imidazolidin-1-yl]-3-(trifluoromethyl)pyridine-2-carbonitrile]	–	525 nM	–	–	–	–	871 nM	–	98.1%	< 4.82	0.2%	< 4.82	0.3%	99.6%
Cc1cc(N2C(=O)C3(CCC3)N(c3ccc(-c4cncc(F)c4)cc3)C2=S)cnc1C#N [Cpd 104, 5-[8-[4-(5-fluoro-3-pyridyl)phenyl]-5-oxo-7-thioxo-6,8-diazaspiro[3.4]octan-6-yl]-3-methyl-pyridine-2-carbonitrile]	98.4%	12 nM	> 15100 nM	2.2%	> 15100 nM	2.7%	129 nM	99.7%	–	–	–	–	–	–
CN1CCC(Oc2ccc(N3C(=S)N(c4cnc(C#N)c(C(F)(F)F)c4)C(=O)C34CCC4)c(F)c2)CC1 [Cpd 49, 5-[8-[2-fluoro-4-[(1-methyl-4-piperidyl)oxy]phenyl]-5-oxo-7-thioxo-6,8-diazaspiro[3.4]octan-6-yl]-3-(trifluoromethyl)pyridine-2-carbonitrile]	96.5%	257 nM	> 15100 nM	0.5%	> 15100 nM	0.6%	501 nM	101%	–	–	–	–	–	–
Cc1ccc(N2C(=S)N(c3cnc(C#N)c(C(F)(F)F)c3)C(=O)C2(C)C)cc1 [Cpd 110, 5-[4,4-dimethyl-5-oxo-3-(p-tolyl)-2-thioxo-imidazolidin-1-yl]-3-(trifluoromethyl)pyridine-2-carbonitrile]	100%	145 nM	> 15100 nM	2.6%	> 15100 nM	1.3%	195 nM	100%	–	–	–	–	–	–
N#Cc1ncc(N2C(=O)C3(CCC3)N(c3ccc(C(=O)NCCCc4ccccc4)c(F)c3)C2=S)cc1C(F)(F)F [Cpd 57, 4-[6-[6-cyano-5-(trifluoromethyl)-3-pyridyl]-5-oxo-7-thioxo-6,8-diazaspiro[3.4]octan-8-yl]-2-fluoro-N-(3-phenylpropyl)benzamide]	–	479 nM	–	–	–	–	324 nM	–	95.5%	< 4.82	0.5%	< 4.82	0%	99%
COCCOc1ccc(N2C(=S)N(c3cnc(C#N)c(C)c3)C(=O)C23CCC3)cc1F [Cpd 100, 5-[8-[3-fluoro-4-(2-methoxyethoxy)phenyl]-5-oxo-7-thioxo-6,8-diazaspiro[3.4]octan-6-yl]-3-methyl-pyridine-2-carbonitrile]	97.2%	257 nM	> 15100 nM	1.7%	> 15100 nM	1.8%	417 nM	102%	–	–	–	–	–	–
Cc1cc(N2C(=O)C3(CCC3)N(c3ccc(C(=O)Nc4cccc(Cl)c4)c(F)c3)C2=S)cnc1C#N [Cpd 78, N-(3-chlorophenyl)-4-[6-(6-cyano-5-methyl-3-pyridyl)-5-oxo-7-thioxo-6,8-diazaspiro[3.4]octan-8-yl]-2-fluoro-benzamide]	95.9%	1050 nM	> 15100 nM	1%	> 15100 nM	0.7%	1320 nM	96.5%	–	–	–	–	–	–
Cc1cc(N2C(=O)C3(CCC3)N(c3ccc(C(=O)NC4CCOCC4)c(F)c3)C2=S)cnc1C#N [Cpd 2, 4-[6-(6-cyano-5-methyl-3-pyridyl)-5-oxo-7-thioxo-6,8-diazaspiro[3.4]octan-8-yl]-2-fluoro-N-tetrahydropyran-4-yl-benzamide]	–	288 nM	–	–	–	–	2240 nM	–	99.3%	< 4.82	-0.4%	< 4.82	0.8%	98.1%
N#Cc1ncc(N2C(=O)C3(CCC3)N(c3ccc(C(=O)NCc4ccc(Cl)cc4)c(F)c3)C2=S)cc1C(F)(F)F [Cpd 53, N-[(4-chlorophenyl)methyl]-4-[6-[6-cyano-5-(trifluoromethyl)-3-pyridyl]-5-oxo-7-thioxo-6,8-diazaspiro[3.4]octan-8-yl]-2-fluoro-benzamide]	96.7%	646 nM	> 15100 nM	0.5%	> 15100 nM	1%	912 nM	97%	–	–	–	–	–	–
N#Cc1ncc(N2C(=O)C3(CCC3)N(c3ccc(C(=O)N4CCCC4)c(F)c3)C2=S)cc1C(F)(F)F [Cpd 52, 5-[8-[3-fluoro-4-(pyrrolidine-1-carbonyl)phenyl]-5-oxo-7-thioxo-6,8-diazaspiro[3.4]octan-6-yl]-3-(trifluoromethyl)pyridine-2-carbonitrile]	102%	468 nM	> 15100 nM	0.4%	> 15100 nM	0.4%	741 nM	101%	–	–	–	–	–	–
